The source of these data is patent US20180179210A1, “Inhibitors of the TEC Kinase Enzyme Family” (Pharmascience Inc., priority 2015, published 2018).

The target of experiment [1] is T1, human BTK kinase (hBTK) (Homo sapiens, UniProt Q06187).
T1 construct: purchased Eurofins Pharma Discovery Services UK Limited (contract assay, Kinase Profiler)
Description: BTK kinase inhibition assay (Kinase Profiler radiometric protein kinase assay, Eurofins). The experiment is classed as biochemical. Particulars: radiometric [γ-33P-ATP] assay, 40 minutes at room temperature, 250 μM substrate. As to the method: In vitro potency of selected compound was defined against human BTK kinase (hBTK) using Kinase Profiler radiometric protein kinase assays performed at Eurofins Pharma Discovery Services UK Limited.
hBTK kinase is diluted in buffer and all compounds were prepared to 50× final assay concentration in 100% DMSO. This working stock of the compound was added to the assay well as the first component in the reaction, followed by the remaining components as detailed in the assay protocol listed above. The reaction was initiated by the addition of the MgATP mix. The kinase reaction was performed at room temperature for 40 minutes in presence of 250 μM substrate, 10 mM MgAcetate, [γ-33P-ATP] (specific activity approx. 500 cpm/pmol, concentration as required) and variable test article concentrations. The ATP concentrations in the assays were with 15 μM of the apparent. The reaction was stopped by the addition of 3% phosphoric acid solution. 10 μL of the reaction is then spotted onto a P30 filtermat and washed three times for 5 minutes in 75 mM phosphoric acid and once in methanol prior to drying and scintillation counting. In addition positive control wells contain all components of the reaction, except the compound of interest; however, DMSO (at a final concentration of 2%) were included in these wells to control for solvent effects as well as blank wells contain all components of the reaction, with a reference inhibitor replacing the compound of interest. This abolishes kinase activity and establishes the base-line (0% kinase activity remaining).

The subject of experiment [2] is Splenocytes. Description: Splenic cell proliferation assay (anti-IgM stimulated). The experiment is classed as cell-based. Particulars: Splenocyte; CD1 mouse splenocytes, 1 h pre-treatment, 2.5 ug/ml anti-IgM F(ab')2 for 72 h, Cell Titer-Glo; read-out: EC50 (inhibition of splenic cell proliferation). On the procedure: Proliferation of splenocytes in response to anti-IgM can be blocked by inhibition of Btk.
Splenocytes were obtained from 6 week old male CD1 mice (Charles River Laboratories Inc.). Mouse spleens were manually disrupted in PBS and filtered using a 70 um cell strainer followed by ammonium chloride red blood cell lysis. Cells were washed, resuspended in Splenocyte Medium (HyClone RPMI supplemented with 10% heat-inactivated FBS, 0.5× non-essential amino acids, 10 mM HEPES, 50 uM beta mercaptoethanol) and incubated at 37° C., 5% CO2 for 2 h to remove adherent cells. Suspension cells were seeded in 96 well plates at 50,000 cells per well and incubated at 37° C., 5% CO2 for 1 h. Splenocytes were pre-treated in triplicate with 10,000 nM curves of Formula 1 compounds for 1 h, followed by stimulation of cell proliferation with 2.5 ug/ml anti-IgM F(ab′)2 (Jackson ImmunoResearch) for 72 h. Cell proliferation was measured by Cell Titer-Glo Luminescent Assay (Promega). EC50 values (50% proliferation in the presence of compound as compared to vehicle treated controls) were calculated from dose response compound curves using GraphPad Prism Software EC50 values are reported in Table 3: […]
Background: Cellular ATP, detected with luciferase, serves as a proxy for viable cell number.

Experiment [3] relates to TMD-8 human activated B cell diffuse large B cell lymphoma cells. Description: TMD-8 survival assay. The experiment is classed as cell-based. The conditions noted are these: TMD8, TMD-8 cells, 72 h treatment, Cell Titer-Glo. On the procedure:
BTK inhibitors affect the survival of B-cell lymphomas. TMD-8 human activated B cell diffuse large B cell lymphoma cells were seeded in 96-well plates at a density of 20,000 cells/well in HyClone RPMI supplemented with 10% FBS (Fisher)/1% Penicillin/Streptomycin (HyClone) and incubated at 37° C., 5% CO2. Cells were treated in triplicate with 1,000 nM or 100 nM curves of compounds for 72 h. Cell survival was measured by Cell Titer-Glo Luminescent Assay (Promega). EC50 values (50% proliferation in the presence of compound as compared to vehicle treated controls) were calculated from dose response compound curves using GraphPad Prism Software.

T1 sequence (Q06187 whole entry): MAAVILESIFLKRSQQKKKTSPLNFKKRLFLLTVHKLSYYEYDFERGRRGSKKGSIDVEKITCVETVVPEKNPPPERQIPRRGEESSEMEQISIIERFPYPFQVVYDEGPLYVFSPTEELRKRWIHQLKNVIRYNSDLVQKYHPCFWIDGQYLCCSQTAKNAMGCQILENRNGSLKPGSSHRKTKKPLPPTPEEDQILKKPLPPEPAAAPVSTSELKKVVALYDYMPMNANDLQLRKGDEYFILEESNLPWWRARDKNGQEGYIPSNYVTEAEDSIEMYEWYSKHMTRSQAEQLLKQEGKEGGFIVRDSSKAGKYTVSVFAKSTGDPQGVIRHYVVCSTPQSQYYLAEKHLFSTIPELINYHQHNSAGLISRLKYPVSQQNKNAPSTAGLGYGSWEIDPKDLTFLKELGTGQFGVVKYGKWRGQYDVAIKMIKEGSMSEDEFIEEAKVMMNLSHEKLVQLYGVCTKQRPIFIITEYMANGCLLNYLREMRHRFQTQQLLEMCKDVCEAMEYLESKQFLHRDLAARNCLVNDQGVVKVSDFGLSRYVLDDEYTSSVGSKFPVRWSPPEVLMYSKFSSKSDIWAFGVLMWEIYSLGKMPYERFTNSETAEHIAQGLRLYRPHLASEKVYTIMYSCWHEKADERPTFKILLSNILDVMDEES

Consider `C=CC(=O)N[C@H]1CC[C@@H](n2nc(-c3ccc(Oc4cc(F)cc(OCc5cnc(C)nc5)c4)cc3)c3c(N)ncnc32)CC1` [Compound 29], for which half-maximal inhibition in experiment [1] (IC50) required 8 nM. The EC50 in experiment [2] was 1 nM; in experiment [3] it was 6.6 nM.
In the case of `Cc1ncc(COc2cc(F)cc(Oc3ccc(-c4nn([C@@H]5CCCN(C(=O)/C=C/CN(C)C)C5)c5ncnc(N)c45)cc3)c2)cn1` [Compound 16], the IC50 (as a rule, the midpoint of a concentration-inhibition curve) in experiment [1] was 7 nM. Also, the values for the EC50 in experiment [2] and in experiment [3] were 4.1 nM and 12.1 nM, respectively.
Consider `C#CC(=O)N1CCC[C@@H]1Cn1nc(-c2ccc(Oc3cc(F)cc(OCc4cnc(C)nc4)c3)cc2)c2c(N)ncnc21` [Compound 13], for which, in experiment [1], inhibition was half-maximal at 35 nM (IC50). Also, the values for the EC50 in experiment [2] and in experiment [3] were 48.7 nM and 79.3 nM, respectively.
For `C=CS(=O)(=O)N1CCC[C@@H](n2nc(-c3ccc(Oc4cc(F)cc(OCc5cnc(C)nc5)c4)cc3)c3c(N)ncnc32)C1` [Compound 21], it took 13 nM to reach half-maximal inhibition in experiment [1] (IC50). The EC50 was 32.9 nM in experiment [2] and 64.5 nM in experiment [3].
Take `C=CC(=O)N1CC2(CC(n3nc(-c4ccc(Oc5cc(F)cc(OCc6cnc(C)nc6)c5)cc4)c4c(N)ncnc43)C2)C1` [Compound 34]: the EC50 in experiment [2] came to 1.5 nM.
Regarding `C=CC(=O)N1CC[C@@H](n2nc(-c3ccc(Oc4cc(F)cc(OCc5cnc(C)nc5)c4)cc3)c3c(N)ncnc32)C1` [Compound 22], the IC50 in experiment [1] came out at 6 nM. For the same compound, the EC50 was determined as 2.7 nM in experiment [2] and 13.4 nM in experiment [3].
Taken in the same sequence, the figures for `C=CC(=O)N(C)[C@H]1C[C@@H](n2nc(-c3ccc(Oc4cc(F)cc(OCc5cnc(C)nc5)c4)cc3)c3c(N)ncnc32)C1` [Compound 31] were 10 nM, 1.4 nM and 8.9 nM.
The corresponding values for `CC#CC(=O)N1CC(Cn2nc(-c3ccc(Oc4cc(F)cc(OCc5cnc(C)nc5)c4)cc3)c3c(N)ncnc32)C1` [Compound 24] are 26 nM, 10.8 nM and 20.6 nM.
Turning to `C=C(F)C(=O)N[C@H]1C[C@@H](n2nc(-c3ccc(Oc4cc(F)cc(OCc5cnc(C)nc5)c4)cc3)c3c(N)ncnc32)C1` [Compound 35], in experiment [2], the EC50 amounted to 1 nM.
As for `C=CC(=O)N1CCC[C@@H]1Cn1nc(-c2ccc(Oc3cc(F)cc(OCc4cnc(C)nc4)c3)cc2)c2c(N)ncnc21` [Compound 14], the IC50 in experiment [1] came to 25 nM. The results for the EC50 in experiment [2] and in experiment [3] were 2.5 nM and 13.8 nM, respectively.
In experiment [1], `C=C(F)C(=O)N1CC[C@@H](n2nc(-c3ccc(Oc4cc(F)cc(OCc5cnc(C)nc5)c4)cc3)c3c(N)ncnc32)C1` [Compound 18] had an IC50 of 14 nM. Also, the EC50 in experiment [2] is 5.8 nM; in experiment [3] it was 14.4 nM.
With `C#CC(=O)N1CCC[C@@H](n2nc(-c3ccc(Oc4cc(F)cc(OCc5cnc(C)nc5)c4)cc3)c3c(N)ncnc32)C1` [Compound 10], in experiment [1], inhibition was half-maximal at 8 nM (IC50). In addition, the EC50 in experiment [2] came out at 9.8 nM; in experiment [3] it was 75.5 nM.
The corresponding values for `CC#CC(=O)N1CCC(n2nc(-c3ccc(Oc4cc(F)cc(OCc5cnc(C)nc5)c4)cc3)c3c(N)ncnc32)CC1` [Compound 26] are 24 nM, 4.6 nM and 18.1 nM.
The corresponding values for `C=CS(=O)(=O)N1CC[C@@H](n2nc(-c3ccc(Oc4cc(F)cc(OCc5cnc(C)nc5)c4)cc3)c3c(N)ncnc32)C1` [Compound 19] are 7 nM, 13.4 nM and 53.3 nM.
In experiment [1], `CC#CC(=O)N(C)[C@H]1C[C@@H](n2nc(-c3ccc(Oc4cc(F)cc(OCc5cnc(C)nc5)c4)cc3)c3c(N)ncnc32)C1` [Compound 32] gave an IC50 of 8 nM. The EC50 came to 1.5 nM in experiment [2] and 8.5 nM in experiment [3].
Compound `Cc1ncc(COc2cc(F)cc(Oc3ccc(-c4nn(C[C@H]5CCCN5C(=O)C5=CCC5)c5ncnc(N)c45)cc3)c2)cn1` [Compound 15] displayed an IC50 in experiment [1] of 53 nM. The EC50 in experiment [2] amounted to 8.7 nM; in experiment [3] it was 56.1 nM.
The corresponding values for `C=CC(=O)N1CCC(n2nc(-c3ccc(Oc4cc(F)cc(OCc5cnc(C)nc5)c4)cc3)c3c(N)ncnc32)CC1` [Compound 25] are 17 nM, 4.3 nM and 19.8 nM.
The corresponding values for `CC#CC(=O)N1CCC[C@@H](n2nc(-c3ccc(Oc4cc(F)cc(OCc5cnc(C)nc5)c4)cc3)c3c(N)ncnc32)C1` [Compound 11] are 10 nM, 1.5 nM and 13.1 nM.
The corresponding values for `C=C(F)C(=O)N1CCC[C@@H](n2nc(-c3ccc(Oc4cc(F)cc(OCc5cnc(C)nc5)c4)cc3)c3c(N)ncnc32)C1` [Compound 20] are 6 nM, 2 nM and 8.6 nM.
On to `C/C=C/C(=O)N1CCC[C@@H]1Cn1nc(-c2ccc(Oc3cc(F)cc(OCc4cnc(C)nc4)c3)cc2)c2c(N)ncnc21` [Compound 3], for which, in experiment [1], half-maximal inhibition (IC50) was put at 129 nM. For the same compound, the figures for the EC50 in experiment [2] and in experiment [3] were 12.8 nM and 45.3 nM, respectively.
In turn, `C=C(F)C(=O)N1CCC[C@@H]1Cn1nc(-c2ccc(Oc3cc(F)cc(OCc4cnc(C)nc4)c3)cc2)c2c(N)ncnc21` [Compound 6] showed an IC50 in experiment [1] of 55 nM. Besides, the values for the EC50 in experiment [2] and in experiment [3] were 11.5 nM and 36.1 nM, respectively.
Taken in the same sequence, the figures for `C=C(C)C(=O)N1CCC[C@@H](n2nc(-c3ccc(Oc4cc(F)cc(OCc5cnc(C)nc5)c4)cc3)c3c(N)ncnc32)C1` [Compound 7] were 16 nM, 48.7 nM and greater than 100 nM.
Taken in the same sequence, the figures for `Cc1ncc(COc2cc(F)cc(Oc3ccc(-c4nn(C[C@H]5CCCN5C#N)c5ncnc(N)c45)cc3)c2)cn1` [Compound 1] were 76 nM, 12.2 nM and 34.7 nM.
Taken in the same sequence, the figures for `CC#CC(=O)N[C@H]1CC[C@@H](n2nc(-c3ccc(Oc4cc(F)cc(OCc5cnc(C)nc5)c4)cc3)c3c(N)ncnc32)CC1` [Compound 30] were 9 nM, 1 nM and 5.1 nM.
`C=CC(=O)N1CC(Cn2nc(-c3ccc(Oc4cc(F)cc(OCc5cnc(C)nc5)c4)cc3)c3c(N)ncnc32)C1` [Compound 23] showed an IC50 in experiment [1] of 9 nM. Besides, the EC50 in experiment [2] stood at 4.9 nM; in experiment [3] it was 13.9 nM.
On to `Cc1ncc(COc2cc(F)cc(Oc3ccc(-c4nn(C[C@H]5CCCN5C(=O)/C=C/CN(C)C)c5ncnc(N)c45)cc3)c2)cn1` [Compound 9], for which the midpoint of inhibition in experiment [1], the IC50, lay at 40 nM. For the same compound, the EC50 in experiment [2] was determined as 6.4 nM; in experiment [3], 18.7 nM.
The corresponding values for `C=C(C)C(=O)N1CCC[C@@H]1Cn1nc(-c2ccc(Oc3cc(F)cc(OCc4cnc(C)nc4)c3)cc2)c2c(N)ncnc21` [Compound 4] are 125 nM, greater than 100 nM and greater than 100 nM.
In turn, `CC#CC(=O)N1CC[C@@H](n2nc(-c3ccc(Oc4cc(F)cc(OCc5cnc(C)nc5)c4)cc3)c3c(N)ncnc32)C1` [Compound 17] registered an IC50 in experiment [1] of 19 nM. In addition, the figures for the EC50 in experiment [2] and in experiment [3] were 6.9 nM and 14.5 nM, respectively.
`C=CC(=O)N1CCC[C@@H](n2nc(-c3ccc(Oc4cc(F)cc(OCc5cnc(C)nc5)c4)cc3)c3c(N)ncnc32)C1` [Compound 12] displayed an IC50 in experiment [1] of 6 nM. In addition, the figures for the EC50 in experiment [2] and in experiment [3] were 3.1 nM and 16.5 nM, respectively.
Taken in the same sequence, the figures for `CC#CC(=O)N[C@H]1C[C@@H](n2nc(-c3ccc(Oc4cc(F)cc(OCc5cnc(C)nc5)c4)cc3)c3c(N)ncnc32)C1` [Compound 28] were 13 nM, 1.1 nM and 8.4 nM.
Turning to `Cc1ncc(COc2cc(F)cc(Oc3ccc(-c4nn(C5CCN(C#N)CC5)c5ncnc(N)c45)cc3)c2)cn1` [Compound 33], the EC50 in experiment [2] was 47.3 nM; in experiment [3], greater than 100 nM.
